Where two headings read alike, the source gives them in different places.
What was measured:
hα2C receptor = biological target: T1, hα2C receptor (Homo sapiens, UniProt P18825); assay: Radioligand binding experiment for α2C-adrenoceptor ([3H]-raulwolscine, CHO cell membranes); conditions: read-out: h-α2C pIC50 (converted)
T1 construct: expressed in transfected cells
T1 sequence (P18825 1-462): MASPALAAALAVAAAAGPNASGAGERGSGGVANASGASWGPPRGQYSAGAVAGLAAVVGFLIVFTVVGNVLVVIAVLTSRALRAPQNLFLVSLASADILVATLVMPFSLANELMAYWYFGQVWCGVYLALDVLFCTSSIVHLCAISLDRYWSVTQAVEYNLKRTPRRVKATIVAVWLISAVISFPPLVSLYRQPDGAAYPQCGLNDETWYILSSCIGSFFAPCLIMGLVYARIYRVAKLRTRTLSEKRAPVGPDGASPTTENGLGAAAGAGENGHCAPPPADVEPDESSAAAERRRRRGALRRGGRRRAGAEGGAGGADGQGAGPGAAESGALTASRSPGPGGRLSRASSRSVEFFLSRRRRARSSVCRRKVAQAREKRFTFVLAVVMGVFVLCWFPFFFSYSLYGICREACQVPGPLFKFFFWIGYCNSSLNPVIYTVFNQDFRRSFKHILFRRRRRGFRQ

hα2A receptor = biological target: T2, hα2A receptor (Homo sapiens, UniProt P08913); assay: Radioligand binding experiment for hα2A receptor ([3H]-raulwolscine, CHO cell membranes); conditions: read-out: h-α2A pIC50 (converted)
T2 construct: expressed in transfected cells
T2 sequence (P08913 1-465): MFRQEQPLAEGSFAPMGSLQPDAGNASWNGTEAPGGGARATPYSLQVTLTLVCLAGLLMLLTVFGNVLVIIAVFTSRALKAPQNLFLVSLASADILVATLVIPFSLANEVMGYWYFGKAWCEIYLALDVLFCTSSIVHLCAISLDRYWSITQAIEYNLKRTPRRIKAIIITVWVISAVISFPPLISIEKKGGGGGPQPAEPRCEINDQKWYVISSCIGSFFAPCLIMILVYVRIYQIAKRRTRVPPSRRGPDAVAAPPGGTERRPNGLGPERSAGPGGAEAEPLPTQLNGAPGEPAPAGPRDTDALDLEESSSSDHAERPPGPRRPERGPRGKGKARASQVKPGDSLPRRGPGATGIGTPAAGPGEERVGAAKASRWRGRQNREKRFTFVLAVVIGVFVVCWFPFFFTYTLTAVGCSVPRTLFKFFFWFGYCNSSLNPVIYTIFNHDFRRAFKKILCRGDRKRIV

5HT-Transporter = biological target: T3, 5HT-Transporter (Homo sapiens, UniProt P31645); assay: Binding experiment for the 5HT-transporter ([3H]paroxetine, human platelet membranes); conditions: [3H]paroxetine 0.5 nM, read-out: h-5HTT pIC50 (converted)
T3 construct: Human platelet membranes (Oceanix Biosciences Corporation, Hanover, Md., USA) were thawed; tissue Oceanix Biosciences Corporation; host or cells: human platelet membranes

[1] = [3H]raulwolscine 1 nM, membranes of CHO cells transfected with human α2C receptor
[2] = [3H]raulwolscine 1 nM, membranes of CHO cells transfected with human α2A receptor

T3 sequence (P31645 whole entry): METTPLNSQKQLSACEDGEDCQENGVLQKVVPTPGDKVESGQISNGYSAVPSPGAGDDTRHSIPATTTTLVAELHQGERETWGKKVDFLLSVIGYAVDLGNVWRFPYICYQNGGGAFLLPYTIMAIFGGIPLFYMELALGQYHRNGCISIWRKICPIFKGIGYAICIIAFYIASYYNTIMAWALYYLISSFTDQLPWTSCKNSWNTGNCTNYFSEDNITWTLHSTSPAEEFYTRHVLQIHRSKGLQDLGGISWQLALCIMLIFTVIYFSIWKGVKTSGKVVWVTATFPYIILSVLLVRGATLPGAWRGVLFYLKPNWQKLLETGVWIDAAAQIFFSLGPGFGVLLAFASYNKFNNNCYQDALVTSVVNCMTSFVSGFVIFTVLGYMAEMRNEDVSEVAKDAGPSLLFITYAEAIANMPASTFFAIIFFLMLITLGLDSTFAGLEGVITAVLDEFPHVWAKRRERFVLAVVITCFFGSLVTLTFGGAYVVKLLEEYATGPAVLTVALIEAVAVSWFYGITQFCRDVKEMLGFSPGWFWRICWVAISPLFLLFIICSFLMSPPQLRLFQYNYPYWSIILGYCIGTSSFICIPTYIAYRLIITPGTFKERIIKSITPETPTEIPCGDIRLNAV

Structure (SMILES)	IC50 (hα2C receptor; [1]) [µM]	IC50 (hα2A receptor; [2]) [µM]	IC50 (5HT-Transporter) [µM]	IC50 (hα2C receptor) [µM]	IC50 (hα2A receptor) [µM]
NCCCn1ccnc(NC2CCN(CCOc3ccccc3)CC2)c1=O [Compound 1-1]	0.00794	0.126	> 10		
NCc1ccc(Cn2ccnc(NC3CCN(CCOc4ccccc4)CC3)c2=O)cc1 [Compound 1-2]	0.00158	0.0158	7.94		
CN(C)CCn1ccnc(NC2CCN(CCOc3ccccc3)CC2)c1=O [Compound 1-3]	0.02	0.158	> 10		
CN(C)CCCn1ccnc(NC2CCN(CCOc3ccccc3)CC2)c1=O [Compound 1-4]	0.00398	0.2	> 10		
CN(C)C(=O)Cn1ccnc(NC2CCN(CCOc3ccccc3)CC2)c1=O [Compound 1-5]	0.0398	0.501	> 10		
CN(C(=O)Cn1ccnc(NC2CCN(CCOc3ccccc3)CC2)c1=O)C1CCCCC1 [Compound 1-6]	0.002	0.126	7.94		
C#CCN(C)C(=O)Cn1ccnc(NC2CCN(CCOc3ccccc3)CC2)c1=O [Compound 1-7]	0.0126	0.251	> 10		
O=C(Cn1ccnc(NC2CCN(CCOc3ccccc3)CC2)c1=O)Nc1ccccc1 [Compound 1-8]	0.00501	0.158	6.31		
CN(C(=O)Cn1ccnc(NC2CCN(CCOc3ccccc3)CC2)c1=O)c1ccccc1 [Compound 1-9]	0.00316	0.1	3.98		
O=C(Cn1ccnc(NC2CCN(CCOc3ccccc3)CC2)c1=O)Nc1ccc(F)cc1 [Compound 1-10]	0.00398	0.158			
O=C(Cn1ccnc(NC2CCN(CCOc3ccccc3)CC2)c1=O)NCc1ccccc1 [Compound 1-11]	0.00631	0.251	7.94		
O=c1c(NC2CCN(CCOc3ccccc3)CC2)nccn1-c1cccc(NCc2ccccc2)c1 [Compound 1-12]	0.00398	0.0501	2.51		
CN(Cc1ccccc1)C(=O)Cn1ccnc(NC2CCN(CCOc3ccccc3)CC2)c1=O [Compound 1-13]	0.00398	0.126	5.01		
O=C(Cn1ccnc(NC2CCN(CCOc3ccccc3)CC2)c1=O)NCc1ccc(F)cc1 [Compound 1-14]	0.00251	0.251	7.94		
O=C(Cn1ccnc(NC2CCN(CCOc3ccccc3)CC2)c1=O)NCCc1ccccc1 [Compound 1-15]	0.00316	0.251			
CN(CCc1ccccc1)C(=O)Cn1ccnc(NC2CCN(CCOc3ccccc3)CC2)c1=O [Compound 1-16]	0.00794	0.2	> 10		
O=C(Cn1ccnc(NC2CCN(CCOc3ccccc3)CC2)c1=O)NCCCc1ccccc1 [Compound 1-17]	0.0126	0.316	2.51		
CCCCN(Cc1ccccc1)C(=O)Cn1ccnc(NC2CCN(CCOc3ccccc3)CC2)c1=O [Compound 1-18]	0.00631	0.126	> 10		
O=C(Cn1ccnc(NC2CCN(CCOc3ccccc3)CC2)c1=O)NCC(c1ccccc1)c1ccccc1 [Compound 1-19]	0.00501	0.158	3.16		
CC(C)(C)OC(=O)NCCCn1ccnc(NC2CCN(CCOc3ccccc3)CC2)c1=O [Compound 1-20]	0.00251	0.126	6.31		
CN(C)CCN(Cc1ccccc1)C(=O)Cn1ccnc(NC2CCN(CCOc3ccccc3)CC2)c1=O [Compound 1-21]	0.000794	0.02	1.58		
O=C(Cn1ccnc(NC2CCN(CCOc3ccccc3)CC2)c1=O)N(CCN1CCCC1)Cc1ccccc1 [Compound 1-23]	0.000501	0.0316			
O=C(Cn1ccnc(NC2CCN(CCOc3ccccc3)CC2)c1=O)N(CCN1CCCC1)Cc1ccc(F)cc1 [Compound 1-24]	0.000316	0.0158	5.01		
O=c1c(NC2CCN(CCOc3ccccc3)CC2)nccn1CCN1CCCCC1 [Compound 2-1]	0.00251	0.1			

Structure (SMILES)	IC50 (hα2C receptor; [1]) [µM]	IC50 (hα2A receptor; [2]) [µM]	IC50 (5HT-Transporter) [µM]	IC50 (hα2C receptor) [µM]	IC50 (hα2A receptor) [µM]
O=C(Cn1ccnc(NC2CCN(CCOc3ccccc3)CC2)c1=O)N1CCCCC1 [Compound 2-3]	0.00794	0.251	> 10		
O=c1c(NC2CCN(CCOc3ccccc3)CC2)nccn1-c1ccc(N2CCCCC2)cc1 [Compound 2-4]	0.02	0.2	2.51		
O=c1c(NC2CCN(CCOc3ccccc3)CC2)nccn1-c1ccc(CN2CCCCC2)cc1 [Compound 2-5]	0.001	0.1	3.98		
O=C(Cn1ccnc(NC2CCN(CCOc3ccccc3)CC2)c1=O)N1CCC(C(F)(F)F)CC1 [Compound 2-6]	0.00398	0.1	> 10		
O=C(Cn1ccnc(NC2CCN(CCOc3ccccc3)CC2)c1=O)N1CCC(Cc2ccccc2)CC1 [Compound 2-7]	0.00501	0.158	1		
O=C(Cn1ccnc(NC2CCN(CCOc3ccccc3)CC2)c1=O)N1CCC(N2CCCC2)CC1 [Compound 2-8]	0.00251	0.0794	> 10		
O=c1c(NC2CCN(CCOc3ccccc3)CC2)nccn1-c1cccc(N2CCC(N3CCCC3)CC2)c1 [Compound 2-9]	0.001	0.00794	6.31		
O=c1c(NC2CCN(CCOc3ccccc3)CC2)nccn1-c1ccc(N2CCC(N3CCCC3)CC2)cc1 [Compound 2-10]	0.00794	0.126	3.16		
O=C(Cn1ccnc(NC2CCN(CCOc3ccccc3)CC2)c1=O)N1CCN(Cc2ccccc2)CC1 [Compound 2-12]			6.31	0.00251	0.2
O=c1c(NC2CCN(CCOc3ccccc3)CC2)nccn1CCN1CCOCC1 [Compound 2-13]	0.02	0.631	> 10		
O=C1c2ccccc2C(=O)N1CCCn1ccnc(NC2CCN(CCOc3ccccc3)CC2)c1=O [Compound 2-15]	0.00126	0.2	1		
O=C1c2ccccc2C(=O)N1CC#CCn1ccnc(NC2CCN(CCOc3ccccc3)CC2)c1=O [Compound 2-16]	0.00794	0.501	1.26		
O=c1c(NC2CCN(CCOc3ccccc3)CC2)nccn1CCCn1c(=O)[nH]c2ccccc21 [Compound 2-17]	0.00126	0.126	3.16		
COCCn1ccnc(NC2CCN(CCOc3ccccc3)CC2)c1=O [Compound 3-1]	0.0501	0.631	> 10		
COC(=O)Cn1ccnc(NC2CCN(CCOc3ccccc3)CC2)c1=O [Compound 3-2]	0.0251	0.158	> 10		
CCOC(=O)CCCCn1ccnc(NC2CCN(CCOc3ccccc3)CC2)c1=O [Compound 3-3]	0.0158	0.251	3.16		
O=c1c(NC2CCN(CCOc3ccccc3)CC2)nccn1Cc1ccccc1Br [Compound 4-1]	0.00794	0.158	2.51		
O=c1c(NC2CCN(CCOc3ccccc3)CC2)nccn1Cc1cccc(Br)c1 [Compound 4-2]	0.0158	0.158	1.58		
O=c1c(NC2CCN(CCOc3ccccc3)CC2)nccn1Cc1ccc(Br)cc1 [Compound 4-3]	0.02	0.1	0.794		
O=c1c(NC2CCN(CCOc3ccccc3)CC2)nccn1CCc1ccccc1 [Compound 4-4]	0.0158	0.158	6.31		
O=C(Cn1ccnc(NC2CCN(CCOc3ccccc3)CC2)c1=O)c1ccccc1 [Compound 4-6]	0.01	0.0398	5.01		
O=c1c(NC2CCN(CCOc3ccccc3)CC2)nccn1Cc1ccc2ccccc2c1 [Compound 4-7]	0.02	0.0794	0.794		
O=c1[nH]ccnc1NC1CCN(CCOc2ccccc2)CC1 [Compound 5-1]	0.0398	0.398	> 10		
CC(C)(C)C(=O)Cn1ccnc(NC2CCN(CCOc3ccccc3)CC2)c1=O [Compound 5-6]	0.01	0.2			

— US20090281099A1, “SUBSTITUTED PYRAZINONE DERIVATIVES FOR USE AS A MEDICINE” (priority 2006, published 2009)
